{"source": "patent US4755529A", "about": "“Guaiazulene derivatives and their methods of use” (Harbor Branch Oceanographic Institution Inc., priority 1986, dated 1988)", "key": {"[1]": {"system": "P388 mouse leukemia cells", "test": "P388 mouse leukemia cell assay", "format": "cell-based", "conditions": "48 hours", "protocol": "P388 mouse leukemia cells are grown in Dulbecco MEM medium with 10% horse serum 4 mM, glutamine, and 20 μg/ml gentamycin (Biologos, Inc.). Cells are incubated in 10% CO2 and subcultured 2 times per week.\n1. Add composition to each well of a 24-well plate or tube and allow solvent to evaporate to dryness.\n2. Add 2 ml (1.2×10^5) cells to each well or tube and mix.\n3. Incubate in 10% CO2 at 37° for 48 hours.\n4. Read plates with an inverted microscope, scoring activity from 1+ to 4+ as follows: ND (not detectable), >90%, 1+, 75-90%; 2+, 50-74%; 3+, 25-49%; 4+, <25% of control growth. Alternatively, scoring may be expressed as IC50 which represents the minimum concentration of the composition required to inhibit 50% of the cell growth on the plate. Cell counts are performed on each tube and results are reported as percent of control."}, "[2]": {"system": "mixed lymphocytes (BALB/c+C57BL/6)", "test": "Mixed lymphocyte reaction (MLR) assay", "format": "cell-based, murine", "conditions": "Mus musculus, percent of positive control, 3H-thymidine, immunostimulatory criterion 150% or greater, read-out: Immunomodulatory activity, % Reference; for activity at 5 µg/mL: 5 ug/ml; for activity at 50 µg/mL: 50 ug/ml", "protocol": "The assay method was uded to identify immune response modifiers of the compositions of Formulae I-III corresponding to composition 1-3 of the samples.\nAseptically removed spleens from BALB/c and C57BL/6 mice were homogenized, separately, in RPMI 1640 medium with 10% fetal calf serum, 2% L-glutamine,15 mM HEPES, 1% antibiotic-antimycotic solution and 25 μg/ml gentamycin (GIBCO). Lymphocytes were then derived by differential cetrifugation after red blood cell lysing and serial cell washing in complete media. Cells were adjusted to equal concentrations (2.5×10^6 cells/ml) and combined after removal of negative control aliquots. Incubation conditions for the cells were 5% CO2, 95% air at 37° C.\n1. Add composition to each well of a 96-well plate and allow solvent to evaporate to dryness, if not aqueous.\n2. Add 0.2 ml mixed lymphocytes (BALB/c+C57BL/6) to each well and mix.\n3. Incubate in 5% CO2 at 37° C. for 86 hours.\n4. Pulse wells with 0.1 ml ^3 H-thymidine (1 uCi/well).\n5. Incubate in 5% CO2 at 37° C. for 6 hours.\n6. Harvest plates and add 2 ml scintillant to each vial containing a filter disc.\n7. Count vials in a liquid scintillation counter (Beckman).\n8. Average replicate counts and report data as percent of positive control. The criteria for immunostimulatory effectiveness is a value of 150%, or greater, above control values for mixed lymphocytes in culture."}, "[3]": {"system": "C. albicans", "test": "Minimum inhibitory concentration (MIC), anti-Candida assay", "format": "cell-based", "conditions": "approximately 1000 cells/mL, 37° C. overnight", "protocol": "Candida albicans: C. albicans (Ca) is grown on Sabouraud dextrose agar to produce single colonies one of which is used to inoculate Sabouraud dextrose broth. The broth is incubated at 37° C. with shaking at 200 rpm for 18 hrs., the resultant culture is frozen with 10% (v/v) glycerol at -80° C. and used as the inoculum for the anti-Candida assay. Two-fold dilutions of the drug are prepared in 50 μL volumes of Sabouraud dextrose broth using 96-well microtiter plates. An inoculum of C. albicans is added in a small volume to give a cell density of approximately 1000 cells/mL. Plates are incubated at 37° C. overnight. 10 uL of Triphenyl tetrazolium chloride (1% w/v) is then added to each well; a further 2 hour incubation results in a deep coloration of the microorganism."}}}
{"compound": "Cc1cc2c(cc3c(C)ccc1-3)C(C)CO2", "note": "(stereo not drawn) [Composition (1), dihydrolinderazulene]", "values": [{"measurement": "IC50", "setting": "[1]", "value": 35, "unit": "µg/mL"}, {"measurement": "activity at 5 µg/mL", "setting": "[2]", "value": 255, "unit": "%"}, {"measurement": "activity at 50 µg/mL", "setting": "[2]", "value": 1, "unit": "%"}, {"measurement": "MIC", "setting": "[3]", "value": 50, "unit": "µg/mL"}]}
{"compound": "Cc1ccc(C(C)C)cc2c(C)ccc1-2", "note": "[Composition (2), guaiazulene]", "values": [{"measurement": "IC50", "setting": "[1]", "value": 35, "unit": "µg/mL"}, {"measurement": "activity at 5 µg/mL", "setting": "[2]", "value": 284, "unit": "%"}, {"measurement": "activity at 50 µg/mL", "setting": "[2]", "value": 351, "unit": "%"}, {"measurement": "MIC", "setting": "[3]", "value": 25, "unit": "µg/mL"}]}
{"compound": "Cc1cc2occ(C)c2cc2c(C)ccc1-2", "note": "[Composition (3), linderazulene]", "values": [{"measurement": "IC50", "setting": "[1]", "value": 50, "unit": "µg/mL"}, {"measurement": "activity at 5 µg/mL", "setting": "[2]", "value": 155, "unit": "%"}, {"measurement": "activity at 50 µg/mL", "setting": "[2]", "value": 19, "unit": "%"}, {"measurement": "MIC", "setting": "[3]", "value": 12.5, "unit": "µg/mL"}]}
